The text below walks through data of a melting point compilation (Tetko et al.; mined from patent text by program, amines drawn as free bases though some values may be those of a salt).

The structures appear in SMILES notation. Bounds are passed on as bounds.

Regarding `COc1cc2c(cc1C(C)=O)CC1(CCCCN1C(=O)C(F)(F)F)CC2` (stereo unspecified), the melting point (as a rule, the temperature, or range, at which the solid turns liquid) is 156 to 157 °C.
`C=CCONC(CCC)=C1C(=O)OC(CCC)=C(Br)C1=O` gave a melting point of 50 to 51 °C.
For the compound `CC(C)(C)OC(=O)CON=C(C(=O)O)c1cccc(NC=O)n1`, the melting point was in the range of 162 to 168 °C.
`CC(C)(C)C(NC(=O)C(=O)Nc1cccnc1)NC(=O)c1ccc(Cl)cc1` (stereo unspecified): the melting point lay within 168 to 170 °C.
As to `CC(C)c1cccc(C(C)C)c1NC(=O)CN1CCN(CCSc2nc3cccc([N+](=O)[O-])c3o2)CC1`, the melting point is 153 to 155 °C.
Regarding `Nc1ccccc1NC(=O)c1ccc(CCC(=O)NCc2cccnc2)cc1`, the melting point was 168 to 170 °C.
In turn, `CN(c1ccc(Cl)cc1)S(=O)(=O)c1cc(C(=O)Nc2ccc(S(C)=O)cc2)ccn1` (stereo unspecified) displayed a melting point of 172 to 174 °C.
For `Oc1ccc(-c2ncc3ncc(-c4ccc(C(F)(F)F)cc4)cc3n2)cc1` the value was 203 to 204 °C.
The value for `N#Cc1cc(C(=O)O)ccc1Cl` was 180 °C.
For the compound `CCOC(=O)N1CCN(c2cc3nc(C(C)(C)C)sc3cc2N)CC1`, the melting point was 215 to 220 °C.
Compound `CC(=O)NC(C)(C)c1ccc(CN2CCN(c3ccccc3)CC2)cc1` showed a melting point of 110 to 111 °C.
The compound `C#CCc1c(C)nc(C)nc1NCc1ccc(-c2ccccc2-c2nnn[nH]2)cc1` returned a melting point of 205 to 206 °C.
In turn, `Cc1cc(-c2ccccc2)n2nc(SC(F)(F)F)nc2n1` had a melting point of 91 to 93 °C.
`CCCc1nc(C(C)(O)CC)c(C#N)n1Cc1ccc(-c2ccccc2-c2nnn[nH]2)cc1` (stereo unspecified) returned a melting point of 141 to 145 °C.
In the case of `O=C(O)[C@@H]1CC[C@H](c2ccccc2)N1C(=O)CCS`, the melting point was 61 to 64 °C.
Compound `CCCCCCCNC(=O)Nc1c(F)cc(F)cc1CCc1ccc(CC(C)(C)C)cc1` returned a melting point of 105 to 107 °C.
`BrCc1cc2ccc3ccccc3c2s1`: the melting point was in the range of 75 to 78 °C.
`O=C(NC1CCN(Cc2ccccc2)CC1)c1c[nH]c2ccc(F)cc12`: the melting point is 215 to 217 °C.
Consider `CC(O)C#Cc1ccc(Cl)cc1` (stereo unspecified), for which the melting point lay within 71 to 72 °C.
For `CC1NC(=NO)OC1c1ccccc1` (stereo unspecified) the value was 145 to 148 °C; for `CCc1nn(C2CCCC2)c2c1CCNC2=O`, 152 to 153 °C; for `Nc1ccc(N)c(C(=O)c2ccccc2Cl)c1`, 30 to 40 °C.
Compound `C=CCc1cc(C(=O)OC)ccc1O` registered a melting point of 78 to 82 °C.
The value for `O=C(O)c1cn(C2CC2)c2c(F)c(N3CCNC(CF)C3)c(F)c(F)c2c1=O` (stereo unspecified) was 219 to 220 °C.
As to `CCc1n[nH]c(CC)c1CCCCCCOc1ccc(O)cc1Cl`, the melting point was in the range of 109 to 111 °C.
The value for `CCCCOc1ccc(C(=O)NCCC(=O)O)cc1` was 144 to 146 °C; that for `CCOC(=O)Oc1ccc(S(=O)(=O)N2c3cc(F)c(F)cc3-n3cccc3C2CC)cc1` (stereo unspecified) was 105 to 107 °C.
The compound `Cn1ccc2ccc(N3Cc4c(cccc4[N+](=O)[O-])C3=O)cc21` displayed a melting point of 225 to 262 °C.
`Cc1nc2nc(C(=O)NO)cc(S)n2n1` had a melting point of 178 to 179 °C.
Consider `CC(=O)Nc1nc2ccc(Cl)nc2c(=O)[nH]1`, for which the melting point is 317 to 319 °C.
The value for `FS(F)(F)(F)(F)c1cc(Br)cc(S(F)(F)(F)(F)F)c1` was 65.9 to 66.4 °C; that for `COc1ccc2c(C(C)C(=O)O)cnc(Cl)c2c1` (stereo unspecified) was 167 to 168 °C; that for `CN1C(=O)CN=C(N2CCC(C)(C)CC2)c2ccccc21` was 143 to 145 °C.
`COC(=O)Cn1nnnc1-c1cccc(C#N)c1` displayed a melting point of 67 to 69 °C.
As to `CCOC(=O)CCNC(=O)N1CCc2cc(S(=O)(=O)N3CCN(c4cccc(Cl)c4)CC3)ccc21`, the melting point was determined as 162 °C.
`Cc1nc2c([nH]1)C(=O)c1ccccc1C2=O`: the melting point was over 260 °C.
In the case of `Cc1cc(NC(=O)OC(C)(C)C)c([N+](=O)[O-])cc1C#Cc1ccccc1`, the melting point was in the range of 161 to 164 °C.
`NCC1Cc2cc(-c3ccccc3)cc(-c3ccc(F)cc3)c2O1` (stereo unspecified) gave a melting point of over 250 °C.
With `CNC(=O)Oc1c(C)cc(C)c2c1CC(C)C2(C)C` (stereo unspecified), the melting point was 130 to 131 °C.
In the case of `COC(=O)Nc1nc(C)c(-c2nc3ccccc3c(=O)n2-c2ccc(C(C)=O)cc2)s1`, the melting point was in the range of 232 to 234 °C.
The value for `CC(=O)NC1CCn2c1nc1cc(NC(=O)c3cc4cc(F)ccc4n3Cc3cccc(F)c3)cnc12` (stereo unspecified) was 282 to 283 °C; that for `N#Cc1ccc(CC=O)cc1` was 63 to 65 °C; that for `COC(=O)COc1ccc2c(c1)S(=O)(=O)C=C(c1c(O)c3cc(F)ccc3n(Cc3ccc(F)cc3)c1=O)N2` was 200 to 207 °C.
The value for `COc1ccc(-c2cc(-c3nc(C)cs3)c(=O)n(C)c2-c2cnccn2)cc1` was 168 to 170 °C; that for `CC(C(N)=O)c1ccc(Oc2ccc(F)cc2F)cc1` (stereo unspecified) was 107 to 110 °C.
For the compound `CC(O)(CNC(=S)Nc1ccc(Br)cc1)C(=O)Nc1ccc([N+](=O)[O-])c(C(F)(F)F)c1` (stereo unspecified), the melting point is 192 to 195 °C.
For `N#Cc1cccc(N2C(=O)CC(=O)Nc3c2ccc2c3CCC2)c1`, the melting point lay in the range of 250 to 251 °C.
Turning to `CC(C)Oc1ccc(OC(C)C)c(OCCN2C(=O)c3ccccc3C2=O)c1`, the melting point turned out to be 66 °C.
Compound `O=C1CCC(c2ccccc2)c2cc(Cl)ccc2N1` (stereo unspecified) yielded a melting point of 184 to 186 °C.
Compound `O=C(O)Cn1c(=O)c2cc(Cc3ncc[nH]3)ccc2n(Cc2ccc(Cl)c(Cl)c2)c1=O` gave a melting point of 243 to 244 °C.
For `CCOc1ccc2c(c1)CCC(Oc1ncnc3ccccc13)C2` (stereo unspecified) the value was 115 to 117 °C; for `Cc1ccc2oc(S(=O)(=O)c3ccc(=O)[nH]n3)c(C)c2c1`, 246 to 247 °C.
Regarding `COc1cc(Cc2cnc(NC(=O)C(C)(C)C)nc2NC(=O)C(C)(C)C)cc(OC)c1OC`, the melting point was in the range of 153 to 154 °C.
In turn, `Fc1ccc(F)c(C=C2CCNc3nc(Br)ccc32)c1` gave a melting point of 178 to 179 °C.
On to `COc1ccccc1NC(=O)c1nc2c(s1)CN(C)CC2`, for which the melting point was in the range of 196 to 198 °C.
`Cc1c(SCCSCCn2c([N+](=O)[O-])cnc2C)ccnc1CNc1cnc2ccccc2c1` yielded a melting point of 152 to 154 °C.
On to `CC(=O)OC1CC2(C)C(=O)CCC2C2C=CC3=CC(=O)CCC3C12` (stereo unspecified), for which the melting point is 246 to 248 °C.
On to `COc1cc2c(c(OC(C)=O)c1)C1CCC3(C)C(=O)C(O)CC3C1CC2` (stereo unspecified), for which the melting point lay in the range of 228 to 231 °C.
`O=C1Cc2cc(Cl)c(N3CCCCC3)cc2O1` came in with a melting point of 129 to 131 °C.
`C=C1N(c2ccc(Cl)cc2)C(=O)OC12CCN(C(=O)N1CCN(CCO)CC1)CC2` came in with a melting point of 185 to 186 °C.
`O=C1C=C(N2CCCCC2)c2oc3ccccc3c2C1=O` had a melting point of 151 to 156 °C.
The compound `CCC1c2nc[nH]c2CCN1C(=O)NC` (stereo unspecified) returned a melting point of 240 °C.
Compound `CCc1cn(C2CC(O)C(CN(C)C(=O)Cc3ccccc3Br)O2)c(=O)[nH]c1=O` (stereo unspecified) came in with a melting point of 182 to 185 °C.
For `CC(=O)c1ccc(Nc2nnc(Cc3ccncc3)c3ccccc23)cc1O` the value was 234 to 236 °C.
`CC(CCCC(C)C1C(O)CC2C3CC=C4CC(O)CCC4(C)C3CCC21C)CN1C(=O)c2ccccc2C1=O` (stereo unspecified) returned a melting point of 134 to 136 °C.
Compound `Cn1ncc(NCCN(CCOc2cccc3c2OCCO3)Cc2ccccc2)c(Cl)c1=O` showed a melting point of 78 to 80 °C.
With `CC(=O)OCC1OC(n2cc(Cc3ccc4occc4c3)c3c(F)cccc32)C(OC(C)=O)C(OC(C)=O)C1OC(C)=O` (stereo unspecified), the melting point is 184 to 185 °C.
For `N#Cc1cc(C2=NOC(c3cc(Cl)cc(Cl)c3)(C(F)(F)F)C2)ccc1-n1cc(Cl)cn1` (stereo unspecified) the value was 190 to 191 °C; for `CSCc1cn(C)c2cc(C(C)(C)C)ccc2c1=O`, 114 to 116 °C.
Consider `CC(C)(C)C1(C(F)n2cncn2)CO1` (stereo unspecified), for which the melting point was in the range of 72 to 74 °C.
With `CS(=O)(=O)c1ccc(-c2cnn(CC(F)(F)F)c(=O)c2Nc2ccc(F)cc2F)cc1`, the melting point was in the range of 170 to 175 °C.
Regarding `O=C1NCCN1c1ccc(S(=O)(=O)Nc2cccc(Oc3ccccc3)c2)cc1`, the melting point was in the range of 208 to 211 °C.
The compound `Cc1c(C(=O)Cl)ccc2c1C(=O)N(C)S2(=O)=O` showed a melting point of 149 to 150 °C.
As to `CCc1nc2c(N)nc3cccnc3c2n1CC1(O)CCOCC1`, the melting point is over 250 °C.
The compound `COc1cc(CCCCCCC2OC(=O)NC2=O)ccc1OCc1nc(-c2ccccc2)oc1C` (stereo unspecified) showed a melting point of 113 to 117 °C.
The compound `O=C(O)c1cn(-c2ccc(OC(F)(F)F)c(Cl)c2)cn1` returned a melting point of 230 to 231 °C.
On to `Nc1nc(CCCc2ccccc2)nc2nc(-c3ccco3)nn12`, for which the melting point is 164 to 167 °C.
With `COc1ccc(C(=O)c2ccccc2)cc1OCCCN1CCC(c2noc3cc(F)ccc23)CC1`, the melting point was in the range of 140 to 141 °C.
The value for `CC1COC2(CCN(C(=O)C(Cl)Cl)CC2)O1` (stereo unspecified) was 115 °C.
The compound `O=C(O)/C=C/c1cc(C2CC2)nn1Cc1ccc(C(F)(F)F)cc1Cl` showed a melting point of 191 to 192 °C.
With `O=C1Nc2ccc(F)cc2C1c1ncnc2nn(C3CCCC3)cc12` (stereo unspecified), the melting point fell in the range of 256 to 260 °C.
For `O=C(N[C@H]1CC[C@H](CCN2CCN(c3nccc4c3CCO4)CC2)CC1)c1ccc(Cl)cc1` the value was 226 °C; for `O=C(O)C1CC(F)(F)CC1C(=O)O` (stereo unspecified), 128 °C; for `COC(=S)c1cc(N)cc(N)c1C`, 102 to 104 °C.
For `CCOC(=O)c1cn(C2CC2)c2cc(F)c(F)cc2c1=O` the value was 189 to 191 °C.
The compound `COc1ccc(C)cc1OCCO` came in with a melting point of 42 to 43 °C.
`CCc1c(Cc2ccccc2)[nH]c(=O)[nH]c1=O` had a melting point of 73 to 74 °C.
Compound `Cc1cc(CC(O)CO)c(OCc2ccccc2)c2c1CCC2` (stereo unspecified) yielded a melting point of 77 to 80 °C.
In turn, `COC(=O)C12CCC(C(=O)O)(CC1)CC2` displayed a melting point of 169 to 173 °C.
In the case of `CON(O)C(=O)c1ccccc1`, the melting point fell in the range of 58 to 60 °C.
Compound `CC(C)(C)c1cc(-c2ccc([N+](=O)[O-])cc2)cc(C(C)(C)C)c1O` gave a melting point of 157 to 160 °C.
